For the test, the target named is MCH receptor (Homo sapiens, UniProt Q99705). The test can be described thus: High throughput functional screening FLIPR/FDSS6000: inhibition of MCH-evoked intracellular Ca2+ changes. Type of test: cell-based. As to conditions: for IC50: class by percent of control at 10^-7 M or by IC50, read-out: class; for class: class by percent of control at 10^-7 M or IC50. The procedure, abridged: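 Cells expressing constitutively active MCH receptor, loaded with 4 μM Fluo4-AM for 1 h at 37 °C, were pretreated 3 min with compound, then challenged with MCH (50 nM for antagonist testing). MCH-evoked [Ca2+]i transients followed by FLIPR or FDSS (ex 488/em 530 nm) over 290 s.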

These results are taken from US20070010671A1, “Novel quinazoline derivatives and methods of treatment related to the use thereof” (priority 2003, published 2007).

The structures appear in SMILES notation. Bounds are passed on as bounds.

With `COc1ccccc1NC(=S)N[C@H]1CC[C@@H](Nc2nc(N(C)C)c3ccccc3n2)CC1` [compound 185, N-(cis-4-{[4-(dimethylamino)quinazolin-2-yl]amino}cyclohexyl)-N′-(2-methoxyphenyl)thiourea], the IC50 was less than 50 nM.
On the same count and under the same terms, the same measure for `CNC(=S)N[C@H]1CC[C@@H](Nc2nc(N(C)C)c3ccccc3n2)CC1` [compound 186]: more than 200 nM.
Take `CN(C)c1nc(N[C@H]2CC[C@@H](NC(=S)Nc3cccc4ccccc34)CC2)nc2ccccc12` [compound 187, N-(cis-4-{[4-(dimethylamino)quinazolin-2-yl]amino}cyclohexyl)-N′-1-naphthylthiourea]: the IC50 was less than 50 nM.
Still for that read-out and setting: the same measure for `CN(C)c1nc(N[C@H]2CC[C@@H](NC(=S)Nc3cccc([N+](=O)[O-])c3)CC2)nc2ccccc12` [compound 188]: more than 200 nM; for `CN(C)c1nc(N[C@H]2CC[C@@H](NC(=S)Nc3ccc([N+](=O)[O-])cc3)CC2)nc2ccccc12` [compound 189]: 50 to 200 nM; for `CN(C)c1nc(N[C@H]2CC[C@@H](NC(=S)NC(C)(C)CC(C)(C)C)CC2)nc2ccccc12` [compound 190]: more than 200 nM.
Same read-out and setting: the same measure for `CN(C)c1nc(N[C@H]2CC[C@@H](NC(=S)Nc3ccccc3)CC2)nc2ccccc12` [compound 191]: more than 200 nM; for `CN(C)c1nc(N[C@H]2CC[C@@H](NC(=S)Nc3c(F)c(F)c(F)c(F)c3F)CC2)nc2ccccc12` [compound 192, N-(cis-4-{[4-(dimethylamino)quinazolin-2-yl]amino}cyclohexyl)-N′-(pentafluorophenyl)thiourea]: 50 to 200 nM.
The same measure, in the same setting: for `CCCNC(=S)N[C@H]1CC[C@@H](Nc2nc(N(C)C)c3ccccc3n2)CC1` [compound 193, N-(cis-4-{[4-(dimethylamino)quinazolin-2-yl]amino}cyclohexyl)-N′-propylthiourea] the value was 50 to 200 nM.
As for `CN(C)c1nc(N[C@H]2CC[C@@H](NC(=S)Nc3cccc(C(F)(F)F)c3)CC2)nc2ccccc12` [compound 194], the IC50 is more than 200 nM.
On to `COc1cc(NC(=S)N[C@H]2CC[C@@H](Nc3nc(N(C)C)c4ccccc4n3)CC2)cc(OC)c1OC` [compound 195, N-(cis-4-{[4-(dimethylamino)quinazolin-2-yl]amino}cyclohexyl)-N′-(3,4,5-trimethoxyphenyl)thiourea], for which the IC50 is less than 50 nM.
Still for that read-out and setting: for `Cc1ccc(NC(=S)N[C@H]2CC[C@@H](Nc3nc(N(C)C)c4ccccc4n3)CC2)cc1` [compound 197, N-(cis-4-{[4-(dimethylamino)quinazolin-2-yl]amino}cyclohexyl)-N′-(4-methylphenyl)thiourea] the value was 50 to 200 nM; for `Cc1ccccc1NC(=S)N[C@H]1CC[C@@H](Nc2nc(N(C)C)c3ccccc3n2)CC1` [compound 198], more than 200 nM; for `CN(C)c1nc(N[C@H]2CC[C@@H](NC(=S)NC(C)(C)C)CC2)nc2ccccc12` [compound 199], more than 200 nM.
Turning to `CN(C)c1nc(N[C@H]2CC[C@@H](NC(=S)Nc3ccccc3Br)CC2)nc2ccccc12` [compound 201], the IC50 was more than 200 nM.
Still for that read-out and setting: the same measure for `CN(C)c1nc(N[C@H]2CC[C@@H](NC(=S)Nc3ccccc3Cl)CC2)nc2ccccc12` [compound 202]: more than 200 nM.
Turning to `CN(C)c1nc(N[C@H]2CC[C@@H](NC(=S)NCCc3ccccc3)CC2)nc2ccccc12` [compound 203], the class is on record as 3 (Class 3: The value of percent of control at 10^−7 M was more than 60% or the value of IC50 was more than 200 nM.).
Still for that read-out and setting: the same measure for `COc1ccc(NC(=S)N[C@H]2CC[C@@H](Nc3nc(N(C)C)c4ccccc4n3)CC2)cc1OC` [compound 204]: 1 (Class 1: The value of percent of control at 10^−7 M was less than 40% or the value of IC50 was less than 50 nM.).
Still for that read-out and setting: for `CCc1ccc(NC(=S)N[C@H]2CC[C@@H](Nc3nc(N(C)C)c4ccccc4n3)CC2)cc1` [compound 205] the value was 2 (Class 2: The value of percent of control at 10^−7 M was from 40% to 60% or the value of IC50 was from 50 nM to 200 nM.); for `CSc1ccccc1NC(=S)N[C@H]1CC[C@@H](Nc2nc(N(C)C)c3ccccc3n2)CC1` [compound 206], 2 (Class 2: The value of percent of control at 10^−7 M was from 40% to 60% or the value of IC50 was from 50 nM to 200 nM.); for `CN(C)c1nc(N[C@H]2CC[C@@H](NC(=S)Nc3ccccc3OC(F)(F)F)CC2)nc2ccccc12` [compound 207, N-(cis-4-{[4-(dimethylamino)quinazolin-2-yl]amino}cyclohexyl)-N′-[2-(trifluoromethoxy)phenyl]thiourea], 2 (Class 2: The value of percent of control at 10^−7 M was from 40% to 60% or the value of IC50 was from 50 nM to 200 nM.).
Still for that read-out and setting: for `CN(C)c1nc(N[C@H]2CC[C@@H](NC(=S)Nc3ccccc3C(F)(F)F)CC2)nc2ccccc12` [compound 208] the value was 3 (Class 3: The value of percent of control at 10^−7 M was more than 60% or the value of IC50 was more than 200 nM.); for `CN(C)c1nc(N[C@H]2CC[C@@H](NC(=S)Nc3ccc(F)c(F)c3F)CC2)nc2ccccc12` [compound 209, N-(cis-4-{[4-(dimethylamino)quinazolin-2-yl]amino}cyclohexyl)-N′-(2,3,4-trifluorophenyl)thiourea], 2 (Class 2: The value of percent of control at 10^−7 M was from 40% to 60% or the value of IC50 was from 50 nM to 200 nM.); for `CN(C)c1nc(N[C@H]2CC[C@@H](NC(=S)Nc3cccc(Cl)c3Cl)CC2)nc2ccccc12` [compound 210], 3 (Class 3: The value of percent of control at 10^−7 M was more than 60% or the value of IC50 was more than 200 nM.).
As for `CN(C)c1nc(N[C@H]2CC[C@@H](NC(=S)Nc3ccc(F)cc3F)CC2)nc2ccccc12` [compound 211], the class is recorded as 3 (Class 3: The value of percent of control at 10^−7 M was more than 60% or the value of IC50 was more than 200 nM.).
For the compound `COc1ccc(OC)c(NC(=S)N[C@H]2CC[C@@H](Nc3nc(N(C)C)c4ccccc4n3)CC2)c1` [compound 212], the class was 2 (Class 2: The value of percent of control at 10^−7 M was from 40% to 60% or the value of IC50 was from 50 nM to 200 nM.).
Same read-out and setting: the same measure for `CN(C)c1nc(N[C@H]2CC[C@@H](NC(=S)Nc3c(F)cccc3F)CC2)nc2ccccc12` [compound 213]: 3 (Class 3: The value of percent of control at 10^−7 M was more than 60% or the value of IC50 was more than 200 nM.); for `CN(C)c1nc(N[C@H]2CC[C@@H](NC(=S)Nc3ccc([N+](=O)[O-])cc3Cl)CC2)nc2ccccc12` [compound 214]: 2 (Class 2: The value of percent of control at 10^−7 M was from 40% to 60% or the value of IC50 was from 50 nM to 200 nM.); for `CN(C)c1nc(N[C@H]2CC[C@@H](NC(=S)Nc3ccccc3OC(F)F)CC2)nc2ccccc12` [compound 215]: 3 (Class 3: The value of percent of control at 10^−7 M was more than 60% or the value of IC50 was more than 200 nM.).
Take `CCc1ccccc1NC(=S)N[C@H]1CC[C@@H](Nc2nc(N(C)C)c3ccccc3n2)CC1` [compound 216]: the class is 1 (Class 1: The value of percent of control at 10^−7 M was less than 40% or the value of IC50 was less than 50 nM.).
Still for that read-out and setting: for `CN(C)c1nc(N[C@H]2CC[C@@H](NC(=S)Nc3cc(C(F)(F)F)ccc3F)CC2)nc2ccccc12` [compound 217] the value was 3 (Class 3: The value of percent of control at 10^−7 M was more than 60% or the value of IC50 was more than 200 nM.).
